Measured values published in patent US20210285933A1, “HIGH THROUGHPUT DRUG SCREENING OF CANCER STEM CELLS” (UNIVERSITY OF WASHINGTON, priority 2018, published 2021).
“Also recorded” adds a separate entry of the source. Residues, ends and D or L forms follow the SMILES beside them. *: point of attachment. Cbz = O=C(OCc1ccccc1)*

Key:
[1] = tested on: leukemia stem cells (LSCs) CD34+CD38low or negCD123+ from AML patient samples; assay: High throughput functional drug screen (72-hour exposure, CellTiter Glo viability) on FACS sorted LSCs; assay type: cell-based, human; parameters: AUC Stem Mean: unit not given here; conditions: for LSC drug response in dose response curves: FIG. 1C; for Effectiveness vs. LSCs (AUCstem mean < mitomycin C AUCblast mean, p<0.1): aggregate viability data of patient samples, in vitro 72 h; for AUC Stem Mean: mean area under dose response curve across patient samples, 72-hour exposure, 8 concentrations; for mean IC50 of LSC samples compared to predicted plasma concentration: FIG. 9, expected plasma concentration in patients with typical dosing
Experimental: (§1) Isolation of blasts and FACS isolation of LSCs: CD34+ blasts were enriched to >90% using immunomagnetic beads (QuadroMACS). Fluorescence activated cell sorting was performed in a biosafety cabinet enclosed FACS-Aria II (Becton-Dickinson; San Jose, Calif.) housed in the University of Washington Core Cell Analysis Facility where voltage was standardized and calibration was performed daily. Mononuclear cells were stained with allophycocyanin H7 (APC-H7) conjugated anti-human CD45, allophycocyanin (APC) conjugated anti-human CD34, phycoerythrin-Cy7 (PE-Cy7) conjugated anti-human CD38 and phycoerythrin (PE) conjugated anti-human CD123 (all from BD Biosciences Pharmingen, San Jose, Calif.). Initially a blast gate was applied for forward scatter vs. side scatter, then sequential gates for CD45 vs. side scatter, CD34+ and CD38^low or neg, then CD123+ cells to yield the LSCs. The CD38low population was defined by CD38 above the isotype control and below that of mature precursors. Flow cytometry data analysis was performed using FlowJo software (Tree Star, Inc. Ashland, Oreg.).
(§2) After overnight incubation on matrix protein coated 384 well plates, drugs were added to each well using a CyBio Well Vario liquid handler (Amalytik Jena). The cell populations were analyzed for survival after a 72-hour exposure to 8 customized drug concentrations (within the range of 5 pM to 100 microM) of each drug spanning 4 logs. Post exposure viability was measured using CellTiter Glo luminescent reagent (Promega, Madison, Wis.) per manufacturer protocol, then the plates were analyzed with the Envision Multi-label plate reader (Perkin Elmer, Waltham, Mass.). XLFit software (IDBS, Guildford, Surrey, United Kingdom) was used to analyze the data and generate dose response curves based on standard 4-parameter logistic fit. For each plate, data were normalized to DMSO 100% viability and blank controls.
(§3) Area under the curve (AUC) was calculated for each dose response curve. For the 4 patient samples, two-sample two-tailed t-tests were used for group comparisons of AUC values to determine drug specificity and efficacy.
(§4) Drug specificity was defined by group comparisons between AUCs for each drug and cell type across patient samples. […] Group comparisons for categorical variable were completed using Fisher's exact test.

LSCs = conditions: literature; cited from earlier work
[2] = tested on: AML blasts (CD45dim, side scatter low) from patient samples; assay: High throughput functional drug screen (72-hour exposure, CellTiter Glo viability) on AML blasts; assay type: cell-based, human; conditions: for mean IC50 of blast samples compared to predicted plasma concentration: FIG. 9, expected plasma concentration in patients with typical dosing
Experimental: as §1
Functional Drug Screen: A CLIA-validated in vitro sensitivity assay was performed that included both FDA approved and investigational drugs. ‘Oncopane11’ comprised of 153 drugs was used for HTS of patient samples and an earlier generation panel of 160 drugs was used for HTS of the NOD/SCID IL2R γc−/− mouse engraftment sample. As detailed above, for the 4 patient samples, using FACS, the blast population (CD45^dim, side scatter^low) was confirmed to be >90% of the viable white blood cell fraction, and the LSC subpopulation (CD34^+CD38^low or negCD123^+) was isolated. For the NOD/SCID IL2R γc−/− mouse engraftment sample, both the pre-engraftment AML blasts (>90% blasts by FACs) and splenic mononuclear cells (91% hCD45+ engrafting subclone as above) were assayed. After overnight incubation on matrix protein coated 384 well plates, drugs were added to each well using a CyBio Well Vario liquid handler (Amalytik Jena). The cell populations were analyzed for survival after a 72-hour exposure to 8 customized drug concentrations (within the range of 5 pM to 100 microM) of each drug spanning 4 logs. Post exposure viability was measured using CellTiter Glo luminescent reagent (Promega, Madison, Wis.) per manufacturer protocol, then the plates were analyzed with the Envision Multi-label plate reader (Perkin Elmer, Waltham, Mass.). XLFit software (IDBS, Guildford, Surrey, United Kingdom) was used to analyze the data and generate dose response curves based on standard 4-parameter logistic fit. For each plate, data were normalized to DMSO 100% viability and blank controls.
as §3
Drug specificity was defined by group comparisons between AUCs for each drug and cell type across patient samples. For blast specific drugs AUCstem mean>AUCblast mean and for LSC specific drugs AUC^stem mean<AUC^blast mean (p<0.1). […] This approach was selected to detect differences within the small sample size, while still maintaining statistical stringency and capturing trends observed in the data set. Group comparisons for categorical variable were completed using Fisher's exact test.

[3] = tested on: AML blasts vs. leukemia stem cells (LSCs); assay: Drug specificity: group comparison of AUCs, blasts vs. LSCs across patient samples; assay type: cell-based, human; conditions: aggregate viability data of patient samples; pairwise p-value<0.1
Experimental: as §2, §3, §4

COCCn1c2c([n+](Cc3cnccn3)c1C)C(=O)c1ccccc1C2=O [YM-155]
LSC drug response in dose response curves ([1]; patient sample on the left): sensitive
Effectiveness vs. LSCs (AUCstem mean < mitomycin C AUCblast mean, p<0.1) [1]: effective
AUC Stem Mean [1]: 0.00089

Nc1ccn([C@@H]2O[C@H](CO)[C@@H](O)C2(F)F)c(=O)n1 [gemcitabine]
LSC drug response in dose response curves ([1]; patient sample on the left): sensitive

CN1CCC(CNc2ccc3ncc(-c4cccc(OC(F)(F)F)c4)n3n2)CC1 [SGI-1776]
AUC Stem Mean [1]: 0.00076

Nc1ccccc1NC(=O)c1ccc(CNc2nccc(-c3cccnc3)n2)cc1 [Mocetinostat]
Effectiveness vs. LSCs (AUCstem mean < mitomycin C AUCblast mean, p<0.1) [1]: LSC effective
AUC Stem Mean [1]: 0.0029

CC(C)C[C@H](NC(=O)CNC(=O)c1cc(Cl)ccc1Cl)B(O)O [ixazomib]
anti-LSC effect in vitro in prior studies (LSCs): anti-LSC effect was shown in vitro

COc1cc([C@@H]2c3cc4c(cc3[C@@H](O[C@@H]3O[C@@H]5CO[C@@H](C)O[C@H]5[C@H](O)[C@H]3O)[C@H]3COC(=O)[C@H]23)OCO4)cc(OC)c1O [Etoposide]
mean IC50 of LSC samples compared to predicted plasma concentration [1]: greater than the predicted plasma concentration
mean IC50 of blast samples compared to predicted plasma concentration [2]: less than predicted plasma concentration
Drug specificity (blast specific: AUCstem mean>AUCblast mean; LSC specific: AUCstem mean<AUCblast mean) [3]: blast cell specific; also recorded: blast cell-specific

CC(C)C[C@@H](C=O)NC(=O)[C@H](CC(C)C)NC(=O)[C@H](CC(C)C)NC(=O)OCc1ccccc1 [MG-132] (Cbz-Leu-Leu-Leu-aldehyde)
AUC Stem Mean [1]: 0.0039

Cc1ccc([N+](=O)[O-])cc1S(=O)(=O)N(C)/N=C/c1cnc2ccc(Br)cn12 [PIK-75]
Effectiveness vs. LSCs (AUCstem mean < mitomycin C AUCblast mean, p<0.1) [1]: effective
AUC Stem Mean [1]: 0.0041

Nc1nc(Cl)nc2c1ncn2[C@@H]1O[C@H](CO)[C@@H](O)[C@@H]1F [clofarabine]
mean IC50 of LSC samples compared to predicted plasma concentration [1]: greater than the predicted plasma concentration
mean IC50 of blast samples compared to predicted plasma concentration [2]: less than predicted plasma concentration
Drug specificity (blast specific: AUCstem mean>AUCblast mean; LSC specific: AUCstem mean<AUCblast mean) [3]: trended towards blast cell specific; also recorded: trended towards blast cell-specific

CNC(=O)c1cc(Oc2ccc(NC(=O)Nc3ccc(Cl)c(C(F)(F)F)c3)cc2)ccn1 [Sorafenib]
Effectiveness vs. LSCs (AUCstem mean < mitomycin C AUCblast mean, p<0.1) [1]: effectively killed; also recorded: effective
AUC Stem Mean [1]: 0.0045
Drug specificity (blast specific: AUCstem mean>AUCblast mean; LSC specific: AUCstem mean<AUCblast mean) [3]: LSC specific; also recorded: LSC-specific

Nc1ncn([C@@H]2O[C@H](CO)[C@@H](O)[C@H]2O)c(=O)n1 [Azacitidine]
Effectiveness vs. LSCs (AUCstem mean < mitomycin C AUCblast mean, p<0.1) [1]: did not result in appreciable cytotoxicity
Drug specificity (blast specific: AUCstem mean>AUCblast mean; LSC specific: AUCstem mean<AUCblast mean) [3]: LSC specific; also recorded: LSC-specific

Nc1nc(Cl)nc2c1ncn2[C@H]1C[C@H](O)[C@@H](CO)O1 [Cladribine]
mean IC50 of LSC samples compared to predicted plasma concentration [1]: greater than the predicted plasma concentration
mean IC50 of blast samples compared to predicted plasma concentration [2]: less than predicted plasma concentration
Drug specificity (blast specific: AUCstem mean>AUCblast mean; LSC specific: AUCstem mean<AUCblast mean) [3]: blast cell specific; also recorded: blast cell-specific

Cc1csc(-c2nnc(Nc3ccc(Oc4ncccc4-c4ccnc(N)n4)cc3)c3ccccc23)c1 [AMG-900]
LSC drug response in dose response curves ([1]; patient sample on the right): sensitive

Cc1ccc(C(=O)Nc2ccc(CN3CCN(C)CC3)c(C(F)(F)F)c2)cc1C#Cc1cnc2cccnn12 [Ponatinib]
AUC Stem Mean [1]: 0.00085

CC(=O)[C@]1(O)Cc2c(O)c3c(c(O)c2[C@@H](O[C@H]2C[C@H](N)[C@H](O)[C@H](C)O2)C1)C(=O)c1ccccc1C3=O [Idarubicin]
LSC drug response in dose response curves ([1]; patient sample on the left): resistant
mean IC50 of LSC samples compared to predicted plasma concentration [1]: greater than the predicted plasma concentration
mean IC50 of blast samples compared to predicted plasma concentration [2]: less than predicted plasma concentration
Drug specificity (blast specific: AUCstem mean>AUCblast mean; LSC specific: AUCstem mean<AUCblast mean) [3]: blast cell specific; also recorded: blast cell-specific

O=C1c2c(O)ccc(O)c2C(=O)c2c(NCCNCCO)ccc(NCCNCCO)c21 [mitoxantrone]
mean IC50 of LSC samples compared to predicted plasma concentration [1]: less than predicted plasma concentration
mean IC50 of blast samples compared to predicted plasma concentration [2]: less than predicted plasma concentration
Drug specificity (blast specific: AUCstem mean>AUCblast mean; LSC specific: AUCstem mean<AUCblast mean) [3]: trended towards blast cell specific; also recorded: trended towards blast cell-specific

CC1(COc2ccc3c(c2)ncn3-c2ccc3cccc(N4CCC(N)CC4)c3n2)COC1 [Crenolanib]
AUC Stem Mean [1]: 0.0054

Nc1ccn([C@@H]2O[C@H](CO)[C@@H](O)[C@@H]2O)c(=O)n1 [Cytarabine]
LSC drug response in dose response curves ([1]; patient sample on the left): resistant
LSC drug response in dose response curves ([1]; patient sample on the right): resistant
mean IC50 of LSC samples compared to predicted plasma concentration [1]: greater than the predicted plasma concentration
mean IC50 of blast samples compared to predicted plasma concentration [2]: less than predicted plasma concentration
Drug specificity (blast specific: AUCstem mean>AUCblast mean; LSC specific: AUCstem mean<AUCblast mean) [3]: blast cell specific; also recorded: blast cell-specific

CO[C@@]12[C@H](COC(N)=O)C3=C(C(=O)C(C)=C(N)C3=O)N1C[C@@H]1N[C@@H]12 [Mitomycin C]
LSC response to mitomycin C in dose response curves ([1]; FIG. 3, both patient samples): resistant
Blast response to mitomycin C in dose response curves ([2]; FIG. 3, both patient samples): sensitive
Drug specificity (blast specific: AUCstem mean>AUCblast mean; LSC specific: AUCstem mean<AUCblast mean) [3]: blast cell specific

CCN(CC)CCNC(=O)c1c(C)[nH]c(/C=C2\C(=O)Nc3ccc(F)cc32)c1C [Sunitinib]
AUC Stem Mean [1]: 0.00039

COc1cccc2c1C(=O)c1c(O)c3c(c(O)c1C2=O)C[C@@](O)(C(C)=O)C[C@@H]3O[C@H]1C[C@H](N)[C@H](O)[C@H](C)O1 [daunorubicin]
LSC drug response in dose response curves ([1]; patient sample on the right): resistant
mean IC50 of LSC samples compared to predicted plasma concentration [1]: opposite pattern
mean IC50 of blast samples compared to predicted plasma concentration [2]: opposite pattern
Drug specificity (blast specific: AUCstem mean>AUCblast mean; LSC specific: AUCstem mean<AUCblast mean) [3]: non-specific

C/C=C1\NC(=O)[C@H]2CSSCC/C=C/[C@H](CC(=O)N[C@H](C(C)C)C(=O)N2)OC(=O)[C@H](C(C)C)NC1=O [Romidepsin]
AUC Stem Mean [1]: 0.00041

CCc1cnn2c(NCc3ccc[n+]([O-])c3)cc(N3CCCC[C@H]3CCO)nc12 [Dinaciclib]
AUC Stem Mean [1]: 0.048

CC(C)C[C@H](NC(=O)[C@H](Cc1ccccc1)NC(=O)c1cnccn1)B(O)O [bortezomib]
Effectiveness vs. LSCs (AUCstem mean < mitomycin C AUCblast mean, p<0.1) [1]: ineffective
